Assay results: US20210181109A1 (FUJIFILM Corporation, priority 2018, published 2021)
Like-named read-outs stand apart in the source and are kept apart here.

Columns and labels:
[1] = NAC depletion percent, HPLC-UV detection (281 nm)
Method: (§1) 1) To a 50 mL vessel, 11.6 mg (±0.1 mg) of NAC is weighed; to this, a 25 mL measuring pipet is used to add 20 mL of 100 mmol/L phosphate buffer (pH: 8.0); and the content is gently stirred using a test tube mixer to achieve dissolution (2 mmol/L). 2) To a 500 mL vessel, 149.5 mL of this buffer is added using a 50 mL measuring pipet; to this, 0.5 mL of the above-described 2 mmol/L NAC solution is added; and the content is mixed by inversion to achieve 300-fold dilution (6.667 μmon).
(§2) The test substance undiluted solution is defined as an “undiluted solution”, and used. Incidentally, this “undiluted solution” may be appropriately diluted to, for example, 1/10, 1/100, or 1/1000, using an appropriate solvent, and the resultant solution may be used.
(§3) Subsequently, the solution having the maximum dissolution concentration is defined as an “undiluted solution”, and tested. Incidentally, this “undiluted solution” may be appropriately diluted to, for example, 1/10, 1/100, or 1/1000, using an appropriate solvent, and the resultant solution may be used.
(§4) The test substance is prepared at 1 mmol/L in any of solvents that are water, acetonitrile, acetone, and a 5 mass % dimethyl sulfoxide (DMSO)/acetonitrile solution and used as a test substance solution. As the solvent, a solvent in which the test substance dissolves at 1 mmol/L is used; when the test substance is soluble in a plurality of solvents, the solvent is selected in the following order of decreasing precedence: water, acetonitrile, acetone, and 5 mass % DMSO/acetonitrile.
(§5) Test substance solutions are prepared on a 96-well plate (U96 PP-0.5 ML NATURAL, Thermo Fisher Scientific Inc. (NUNC)) mainly using a 12-channel pipette, and a reagent is added in accordance with the following formula.
(§6) Nucleophilic reagent (NAC and NAL): 150 μL
(§7) Test substance solution: 50 μL
(§8) The plate is tightly sealed using a plate sealing (Resistant embossed seal, SHIMADZU GLC Ltd.), and stirred using a plate shaker (Titramax 100, Heidolph Instruments GmbH & CO. KG). The plate is subjected to spinning down using a centrifuge, and then to incubation at 25° C., for 24 hours, in a light-shielded state.
(§9) After the incubation for 24 hours, the plate sealing is removed; to each sample, 50 µL of the reaction stopping solution is added to stop the reaction.
(§10) The HPLC measurement conditions for the nucleophilic reagents are as follows.
(§11) From the average values (each, n=3) of peak areas of the post-reaction unreacted NAC or NAL and the blank-test (after performing the reaction step without addition of the test substances) NAC or NAL, the following formula is used to calculate the depletion percent of NAC or NAL.
(§12) NAC depletion percent (% depletion)=[1−(Average value of peak areas of post-reaction unreacted NAC/Average value of peak areas of blank-test (after performing the reaction step without addition of the test substances) NAC)]×100
(§13) The average value of peak areas of the post-reaction unreacted NAC is the average value of areas obtained by measuring three times post-reaction unreacted NAC. The average value of peak areas of blank-test (after performing the reaction step without addition of the test substances) NAC is the average value of areas obtained by measuring three times blank-test (after performing the reaction step without addition of the test substances) NAC.
(§14) The reactions were each performed on a 96-well plate, and the number of samples of each case was set to n=3. In addition, as controls, reaction solutions including the solvent alone were prepared. The reaction solutions were prepared so as to have a NAC or NAL concentration of 5 μmon. To the reaction solutions after the lapse of 24 hours, a trifluoroacetic acid (TFA) aqueous solution was added such that the final concentration became 0.5% (v/v) TFA. Subsequently, HPLC was performed for measurements by two detection methods that were light absorption detection using a photodiode array (PDA) detector, and fluorescence detection using a fluorescence detector.

[2] = NAL depletion percent, HPLC-fluorescence detection
Method: as §1, with “12.6” for “11.6”, “NAL” for “NAC”, “10.2);” for “8.0);”, “mixture” for “mixer”, “mmol/L NAL solution).” for “mmol/L).”, “μmol/L).” for “μmon).”
as §2, §3, §4, §5, §6, §7, §8, §9, §10, §11
(§15) NAL depletion percent (% depletion)=[1−(Average value of peak areas of post-reaction unreacted NAL/Average value of peak areas of blank-test (after performing the reaction step without addition of the test substances) NAL)]×100
(§16) The average value of peak areas of post-reaction unreacted NAL is the average value of areas obtained by measuring three times post-reaction unreacted NAL. The average value of peak areas of blank-test (after performing the reaction step without addition of the test substances) NAL is the average value of areas obtained by measuring three times blank-test (after performing the reaction step without addition of the test substances) NAL.
as §14

[3] = cited from earlier work
[4] = NAL depletion percent, HPLC-UV detection (281 nm)
Method: as §1, with “12.6” for “11.6”, “NAL” for “NAC”, “10.2);” for “8.0);”, “mixture” for “mixer”, “mmol/L NAL solution).” for “mmol/L).”, “μmol/L).” for “μmon).”
as §2, §3, §4, §5, §6, §7, §8, §9, §10, §11, §15, §16, §14

[5] = Average score of NAC and NAL depletion and prediction of skin allergenicity, fluorescence method; conditions: for Average score: test substance solution 1 mmol/L; for determination of skin allergenicity from average score: criterion […]
Method: (§17) The average value (Average Score) of NAC and NAL depletion percents is calculated. In the resultant value, the second decimal place is rounded off.
(§18) Average value (Average Score) of NAC and NAL depletion percents=(NAC depletion percent+NAL depletion percent)/2
(§19) The depletion percent of at least one of NAC or NAL or the average score of the depletion percents of NAC and NAL is calculated, and whether or not the test substances are “allergenic substances” or “non-allergenic substances” is determined:
(§20) (1) in a case of performing evaluation based on the average value of the depletion percent of NAC and the depletion percent of NAL,
(§21) In the following Tables, S represents as being an allergenic substance and NS represents as being a non-allergenic substance.

[6] = Average score of NAC and NAL depletion and prediction of skin allergenicity, UV method; conditions: for Average score: test substance solution 1 mmol/L; for Mean Depletion (%) (average score) / determination of skin allergenicity from average score: UV method; for determination of skin allergenicity from average score: criterion […]
Method: as §17, §18, §19, §20, §21

[7] = NAC depletion percent, HPLC-fluorescence detection
Method: as §1, §2, §3, §4, §5, §6, §7, §8, §9, §10, §11, §12, §13, §14

[8] = single substance, test substance solution 1 mmol/L, Reference (UV method)
[9] = single substance, test substance solution 1 mmol/L, fluorescence method
[10] = single substance, fluorescence method
[11] = single substance, Reference (UV method)
[12] = known values, LLNA-test-based classification, − for non-allergenic substances
[13] = single substance, fluorescence method, criterion average score […]
[14] = single substance, Reference (UV method), criterion average score […]
[15] = Reference (UV method), non-allergenic substance
[16] = Fluorescence method, non-allergenic substance
[17] = 1/1 (undiluted solution), UV method
[18] = 1/10 diluted solution, UV method
[19] = 1/1 (undiluted solution), fluorescence method, 25° C. 24 hours
[20] = 1/10 diluted solution, fluorescence method
[21] = 1/1 (undiluted solution), fluorescence method

| Structure (SMILES) | NAC depletion (%) [1, 8] [%] | NAL depletion (%) [2, 9] [%] | EC3 (%) ([3]; in vivo) | NAL depletion (%) [4, 8] [%] | Average score [5, 10] [%] | Average score [6, 11] [%] | NAC depletion (%) [7, 9] [%] | EC3 (%) [3, 12] [%] | Prediction result [5, 13] | Prediction result [6, 14] | further results |
| --- | --- | --- | --- | --- | --- | --- | --- | --- | --- | --- | --- |
| O=c1[nH]sc2ccccc12 [1,2-Benzisothiazolin-3-one] | 100.0 | 0.2 | 2.3% | 0.4 | 49.5 | 50.2 | 98.8 |  |  |  | Prediction result [5]: S (key: S represents as being an allergenic substance; NS represents as being a non-allergenic substance); Prediction result [6]: S (key: S represents as being an allergenic substance; NS represents as being a non-allergenic substance) |
| CCC(=O)C=Cc1ccc(OC)cc1 [1-(4-Methoxyphenyl)-1-penten-3-one] | 1.6 | 0.4 |  | 4.2 | 0.8 | 2.9 | 1.2 | 9.3 | NS (NS represents as being a non-allergenic substance) | NS (NS represents as being a non-allergenic substance) |  |
| CCCCO [1-Butanol] |  |  | − |  |  |  |  |  |  |  | NAC depletion (%) [1, 15]: 0.1%; NAL depletion (%) [2, 16]: 0.3%; NAL depletion (%) [4, 15]: 0.8%; NAC depletion (%) [7, 16]: 2.1% |
| CC(C)(C)C(=O)CC(=O)C(C)(C)C [2,2,6,6-Tetramethyl-3,5-heptanedione] | 0.5 | 0.0 |  | 1.6 | 0.0 | 1.1 | 0.0 | 27 | NS (NS represents as being a non-allergenic substance) | NS (NS represents as being a non-allergenic substance) |  |
| CCC=CC=CC=O [2,4-Heptadienal] | 35.8 | 11.8 |  | 50.1 | 29.0 | 42.9 | 46.2 | 4 | S (S represents as being an allergenic substance) | S (S represents as being an allergenic substance) |  |
| Sc1nc2ccccc2s1 [2-Mercaptobenzothiazole] | 56.6 | 0.0 |  | 0.3 | 32.7 | 28.4 | 65.5 | 1.7 | S (S represents as being an allergenic substance) | S (S represents as being an allergenic substance) |  |
| Cn1sccc1=O [2-Methyl-2H-isothiazol-3-one] | 94.0 | 4.6 |  | 7.0 | 51.6 | 50.5 | 98.5 | 1.9 | S (S represents as being an allergenic substance) | S (S represents as being an allergenic substance) |  |
| CC(C=O)c1ccccc1 (centres unmarked) [2-Phenylpropionaldehyde] | 8.0 | 7.3 |  | 4.6 | 7.9 | 6.3 | 8.5 | 6.3 | S (S represents as being an allergenic substance) | S (S represents as being an allergenic substance) |  |
| C=CCc1ccc(OC)cc1 [4-Allylanisole] | 27.0 | 0.7 |  | 3.9 | 7.9 | 15.4 | 15.0 | 18 | S (S represents as being an allergenic substance) | S (S represents as being an allergenic substance) |  |
| C=O [Formaldehyde] |  |  | 0.61% |  |  |  |  |  |  |  | Prediction result [5]: S (key: S represents as being an allergenic substance; NS represents as being a non-allergenic substance); Prediction result [6]: S (key: S represents as being an allergenic substance; NS represents as being a non-allergenic substance) |
| CCCOC(=O)c1ccc(O)cc1 [Propylparaben] |  |  | − |  |  |  |  |  |  |  | NAC depletion (%) [1, 15]: 0.1%; NAL depletion (%) [2, 16]: 4.4%; NAL depletion (%) [4, 15]: 1.9%; NAC depletion (%) [7, 16]: 0.5% |
| CC[C@H](CC[C@@H](C)[C@H]1CC[C@H]2[C@@H]3CC=C4C[C@@H](O)CC[C@]4(C)[C@H]3CC[C@]12C)C(C)C [β-sitosterol, β-Sitosterol] |  |  |  |  |  |  |  |  |  |  | NAC depletion (%) [1, 17]: 0.0%; NAC depletion (%) [1, 18]: 3.9%; NAL depletion (%) [2, 19]: 0.1%; NAL depletion (%) [2, 20]: 0.0%; NAL depletion (%) [4, 17]: 0.0%; NAL depletion (%) [4, 18]: 0.0%; Mean Depletion (%) (average score) [5, 21]: 0.1%; determination of skin allergenicity from average score [5, 21]: not having skin allergenicity; Mean Depletion (%) (average score) [5, 20]: 0.3%; determination of skin allergenicity from average score [5, 20]: not having skin allergenicity; Mean Depletion (%) (average score) ([6]; 1/1 (undiluted solution)): 0.0%; determination of skin allergenicity from average score ([6]; 1/1 (undiluted solution)): not having skin allergenicity; Mean Depletion (%) (average score) ([6]; 1/10 diluted solution): 1.9%; determination of skin allergenicity from average score ([6]; 1/10 diluted solution): not having skin allergenicity; NAC depletion (%) [7, 19]: 0.0%; NAC depletion (%) [7, 20]: 0.6% |
